Source: a melting point compilation (Tetko et al.; mined from patent text by program, amines drawn as free bases though some values may be those of a salt)

| SMILES | melting point [°C] |
| --- | --- |
| CC(=O)C(=NNc1ccccc1)C(=O)Nc1ccccc1 | 96 to 97 |
| O=c1nc(-c2cccc(S(=O)(=O)CCCc3ccccc3)n2)sc2ccccc12 | 150 to 151 |
| COc1cc(C(C)=O)ccc1OCCN1C2CCC1CC(c1n[nH]c3cc(F)ccc13)C2 (configuration not stated) | 151 to 152 |
| CCNC(=NS(=O)(=O)c1ccc(C#N)cc1)N1CC(CC)C=N1 (configuration not stated) | 146 to 149 |
| COc1cc(Br)cc(-c2ccc3nonc3c2)c1 | 135 to 137 |
| O=C1c2cccc3cc4ccccc4c(c23)C(=O)N1CCNCCN1C(=O)c2cccc3cc4ccccc4c(c23)C1=O | 271 |
| COc1ccc(Br)cc1OCCCCCc1ccc(F)cc1 | 46 to 47 |
| CN1C(=O)[C@H](NC(=O)CCc2ccc(C(F)(F)F)cc2)N=C(c2ccccc2)c2ccccc21 | 175 to 176 |
| C=CCN1CCC(c2cc(-c3ccc(Cl)cc3)[nH]n2)CC1 | 165 to 167 |
| O=C1NN=C(C=Cc2ccc([N+](=O)[O-])cc2)CS1 | 231 to 240 |
| NC(=O)c1coc(-c2cccc(C3=Nc4ccc(-n5cccc5)cc4NC(=O)C3)c2)n1 | 232 to 234 |
| O=C(O)c1cnn2c(C(F)(F)F)cc(-c3ccc(C(F)(F)F)c(OCC(F)(F)F)c3)nc12 | 264 |
| Cn1nc(-c2nc(C#N)c(C#N)nc2-c2ccccc2)ccc1=O | 210 to 212 |
| O=C(O)CC[C@H]1O[C@@H](c2ccccc2Cl)c2cc(Cl)ccc2N(Cc2ccccc2)C1=O (relative stereo) | 135 to 137 |
| OC(Cc1ccc(Cl)cc1Cl)n1ccnc1 (configuration not stated) | 139 to 141 |
| O=S1(=O)NCNc2ccc(Br)cc21 | 200 to 204 |
| Cc1ccc(NC(=O)C#Cc2ccccc2)cc1 | 139 to 141 |
| O=c1cc(Cl)sn1-c1ccc(Cl)cc1 | 117 to 119 |
| CCCCCCCCCCCCCCCCCCCCCCSC[C@H](NC(=O)CCCCCCCCCCCCCCC)C(=O)O | 90 to 92 |
| O=c1cnc(-c2ccc([N+](=O)[O-])cc2)c[nH]1 | 336 to 338 |
| Cc1cc(C)c2c(c1)SCC2c1ccc(C(C)C)cc1 (configuration not stated) | 74 to 75 |
| Brc1ccc(Nc2nnc(Cc3ccncc3)c3ccccc23)cc1 | 201 to 202 |
| CC(=O)NC(C)=NC(=Nc1ccccc1)N1CCOCC1 | 146 to 149 |
| CCCNC(=O)C1(CCCCP(=O)(c2ccccc2)c2ccccc2)c2ccccc2-c2ccccc21 | 163 to 165 |
| COc1cccc2c1C(=O)NS2(=O)=O | 224 |
| CC1(C(=O)O)COC2(CCCCCCC2)OC1 | 120 to 122 |

| SMILES | melting point [°C] |
| --- | --- |
| N#Cc1cn(-c2c(Cl)cc(C(F)(F)F)cc2Cl)nc1[N+](=O)[O-] | 163 to 165 |
| Brc1ccc(-c2ccc3nncn3n2)cc1 | 209 to 211 |
| COc1cc2nc(N)nc(-c3ccccc3I)c2cc1OC | 225 to 230 |
| O=c1oc(-c2cccc(C(F)(F)F)c2)nc2cccc(Cl)c12 | 116 to 120 |
| OCC1(c2ccccc2)CCCCC1 | 63 to 64 |
| NC1=NN(c2cccc(F)c2)CC1 | 146 to 147 |
| O=C(CNC(=O)C(Cc1ccccc1)C(=O)NOCc1ccccc1)OCc1ccccc1 (configuration not stated) | 70 |
| CN(CCCCCNC(=O)NCCCOc1cccc(CN2CCCCC2)c1)CCN(Cc1ccc(F)cc1)c1ccccn1 | 63 |
| CCCCCCCCCCCCCCOc1ccc(C(=O)Nc2ccc(CO)cc2)cc1 | 140 to 145 |
| CC(C)=CCCC(C)C1CCC2C3=CC=C4CC(O)CCC4(C)C3CCC21C (configuration not stated) | 114 to 117 |
| O=C(O)Cc1ccc(Oc2ccc(C(F)(F)F)cn2)c(Cl)c1 | 138 to 139 |
| O=C1c2ccccc2C(=O)N1CC(=O)N1c2ccccc2N(Cc2ccc3ccccc3c2)C(=O)C2CCCC21 (configuration not stated) | 238 to 239 |
| CN(C)[C@H]1CC[C@H](Nc2ncc3ncnc(Nc4ccc(OCc5ccccc5)cc4)c3n2)CC1 | 155 |
| COc1cc(O)ccc1-c1nc(C)c(-c2cccnc2)[nH]1 | 237 to 240 |
| N#CCc1ccc(-c2nc3ccccc3o2)cc1Br | 190 to 191 |
| CCCC(Cl)(Cl)C(NC(=O)c1ccc(Cl)cc1)NC(=N[N+](=O)[O-])Nc1cccnc1 (configuration not stated) | 198 to 200 |
| Fc1ccc(-c2cc(N3CCNCC3)nnc2C(F)(F)F)cc1 | 137 |
| [N-]=[N+]=Nc1ccc(C=Cc2ccncc2)cc1 | 88.2 to 89.4 |
| C=CCN1CCN(C2N=C(N)OC2C)CC1 (configuration not stated) | 99 |
| Clc1cccnc1-c1cc(OCCc2ccccn2)c2[nH]nc(Nc3cnccn3)c2c1 | 117 to 119 |
| O=C(c1ccc(Cl)c(Cl)c1)N1CCc2cc(S(=O)(=O)N3CCN(c4cccc(Cl)c4)CC3)ccc21 | 174 to 175 |
| Cc1ccc(C(=O)NC(=O)N2CC2C#N)cc1 (configuration not stated) | 177 to 180 |
| FC(F)Sc1ccc(-c2ccc(Cl)cc2)[nH]1 | 42 to 46 |
| Cc1nc(/C=C/c2cccc(Cl)c2F)no1 | 95 to 98 |
| COc1ccc(-c2ccccc2-c2ccc(S(C)(=O)=O)cc2)cc1F | 136 to 137 |

The remaining lines, values ahead:

| melting point [°C] | SMILES |
| --- | --- |
| 87 to 92 | COCC(=O)[C@H](Cc1ccccc1)NC(=O)[C@H](CC(C)C)NC(=O)OCc1ccccc1 |
| 85 to 90 | COC(=O)CCCc1cc2nc(Cl)ccc2n1S(=O)(=O)c1ccccc1 |
| 228 to 230 | CN1CCN(Cc2nnc3n2CC(=O)N(C)c2ccc(Cl)cc2-3)CC1 |
| 216 to 218 | CCOc1cc(Cc2cnc(N)nc2N)cc2c1OC(C)(C)C=C2C |
| 208 to 210 | CN(C)CC(=O)N1c2ccccc2NC(=O)c2cncnc21 |
| 97 to 98 | CCn1cc(CC(=O)O)c(OCCCc2ccc(Cc3ccccn3)cc2OC(C)C)n1 |
| > 300 | CC(=O)NC1(c2ccccc2)C2=NCC(C)(C)CN2c2ccccc21 (configuration not stated) |
| 90 to 91 | COC(=O)C1C(OC)=CCc2ccc(OC)cc21 (configuration not stated) |
| 104 to 105 | Cc1ccsc1C(=O)NCCCSc1ccncc1 |
| 170 to 172 | CCCCCC(CC(=O)Nc1cc(C(=O)NC(=O)C(C)(C)C)ccc1C(C)(C)C)c1ccc(OC)cc1OC (configuration not stated) |
| 96 | CCC[C@H]1CC[C@H](C(=O)Oc2ccc(-c3ccc(F)cc3)cc2)CC1 |
| 220 | CCCC(=O)Nc1n[nH]c2cc(-c3ccccc3)ccc12 |
| 119 to 120 | CC(C)c1ccc(C(C[N+](=O)[O-])SC(=S)N(C)C)cc1 (configuration not stated) |
| 151 to 153 | CC(Oc1ncn(-c2ccc(Cl)cc2Cl)n1)C(=O)O (configuration not stated) |
| 125 to 127 | CCc1ccc(OCCCCCN2CCN(c3nccs3)CC2)cc1 |
| 243 to 247 | Cn1cc(C2=C(c3cn(CCC(N)=O)c4ccccc34)C(=O)NC2=O)c2ccccc21 |
| 215 to 217 | CCc1nc2ncnc(-c3c(C)cc(C)cc3C)c2[nH]1 |
| 129 to 131 | CC1(C)OCC[C@@H]2[C@@H](NC(=O)OCc3ccccc3)C(=O)N21 (relative stereo) |
| 124 to 125 | Cc1nc(-c2cn(CCC3CC3)nn2)sc1C(=O)NCc1cccnc1 |
| 58 to 59 | Cc1cc(C)c2c(c1C)OC(C)(CC#N)C2 (configuration not stated) |
| 104 to 105 | COc1ccccc1[C@H](c1cccc2ccccc12)[C@@](C)(C#N)C(=O)N1CCN(c2cccc(C)c2)CC1 |
| 38 to 40 | COc1ccc(C(=O)CC(C)C)cc1OCCCO |
| 177 to 180 | Nc1nc2ccccc2c2c1ncn2CCCCNC(=O)N1CCOCC1 |
| 77.5 to 80.5 | CCCCc1nc(C(F)(F)F)c(C(=O)OCC)n1O |
| 124 to 127 | COc1ccc(N(C(=O)F)C(=O)Cl)cc1Cl |
| 148 | COc1ccc(-c2nc(-c3ccc4c(c3)CCCN4C(C)=O)cs2)cc1OC |

| melting point [°C] | SMILES |
| --- | --- |
| 81 | Cc1cc(CSCCN)sc1CN1CCCCC1 |
| 255 to 257 | COC(=O)c1ccc(C2C(C(=O)c3ccc(OC)cc3)=C(O)C(=O)N2c2nnc(C)s2)cc1 (configuration not stated) |
| 235 to 236 | O=C(OC(=O)c1cc2cc(O)ccc2s1)c1ccccc1 |
| 197 to 199 | CCOC(=O)N1C(c2ccccc2)OC(=O)C1c1ccccc1 (configuration not stated) |
| 116 to 120 | CC(C)(C)C(c1csc2ccccc12)[C@@H](OC(N)=O)c1nc(-c2ccccc2)c[nH]1 (some centres not stated) |
| 91 | COC(=O)c1cc(-c2cccs2)cc(C)c1NS(=O)(=O)c1ccc(OC)cc1 |
| 76 to 77 | COc1cc(C(C)=O)cc(OC)c1OCCOc1ccc2ccccc2c1 |
| 163 to 166 | Cc1cnc(CN2CCNC2=C[N+](=O)[O-])cn1 |
| 120 to 122 | Cc1nc(-c2ccccc2)nc(Cl)c1C |
| 240 to 241 | NC(=O)c1ccc(N2CCN(Cc3cn4cc(Cl)ccc4n3)CC2)cc1 |
| 74 | COC(=O)C1CCCN1C(=O)Cc1c(C)cc(C)cc1C (configuration not stated) |
| > 300 | O=C(Nc1cccc(C(=O)O)c1)OCc1cn(-c2cc3cc(C(=O)O)c(=O)[nH]c3cc2[N+](=O)[O-])cn1 |
| 137 to 138 | COc1cc(C(C)C)c2c(c1)S(=O)(=O)N(COC(=O)c1c(C)cc(C)cc1C)C2=O |
| 205 to 208 | Cc1ccc(NC(=O)c2ccccc2)c(C(=O)O)c1 |
| 166 to 168 | Cn1c(C(F)(F)F)c(C#N)c2cc(Cl)ccc21 |
| 63 to 64 | CCOC(=O)c1c(N)c(C)c(C)n1C |
| 171 to 173 | CCOC(=O)c1c(C(=O)O)c2c(OCc3ccccc3)ccc3c(CC)c(-c4ccc(OCc5ccccc5)cc4)c1n32 |
| 109 to 112 | CCC(Oc1ccc([N+](=O)[O-])cc1)C(=O)NCc1ccccc1OC (configuration not stated) |
| 200 to 201 | COc1ccc(C=CC(=O)Nc2cnc3c(C)cc(C)cc3c2-c2ccccc2Cl)c(OC)c1OC |
| 145 | O=C(COc1cc(-c2ccccc2F)nc2ccccc12)N1CCOCC1 |
| 48 to 50 | CCCCCCCCCCCCNC(=O)N1c2ccccc2C(C)CC1(C)C (configuration not stated) |
| 99 to 101 | COC(=O)c1ccc(-c2ccncc2)cc1 |
| 134 to 135 | CN(C)c1ccc(C=CC(=O)c2ccc3c(c2)CCCC3)cc1 |
| 167 to 168 | COC(=O)Cc1ccc(NC(=O)Nc2ccccc2C)c(OC)c1 |
| 159 to 164 | CCOc1ccc(-c2ccc3c(c2)C=C(C(=O)OC)CCN3)cc1OCC |
